Laboratory results published in PMC5978884, “Dissection of the antimicrobial and hemolytic activity of Cap18: Generation of Cap18 derivatives with enhanced specificity” (PLoS ONE, 2018).
Values after ≈ are worked out from the molar mass of the structure shown. Where two headings read alike, the source gives them in different places. Where no end group is shown, it is not given here.

Key:
Type in all cases: cell-based
[1] = tested on: Aeromonas salmonicida ATCC33658; assay: microbe, parasite or virus in culture; details: for MIC: Aeromonas salmonicida
Method: (§1) All strains were grown in Mueller-Hinton-II medium, except L. monocytogenes which was grown in BHI medium and L. lactis which was grown in MRS medium. Incubation took place aerobically at 37°C, except for Y. ruckeri and A. salmonicida, which were grown aerobically at RT (20 °C), and L. lactis grown aerobically at 30°C. All plates were incubated for 16–21 hours.
(§2) The minimum inhibitory concentrations (MICs) of the AMPs were measured in 96-well microtiter plates according the Clinical and Laboratory Standards Institute (CLSI, formerly National Committee for Clinical Laboratory Standards [NCCLS]). Briefly, liquid Mueller-Hinton-II medium containing increasing concentrations of AMPs is inoculated with a defined number of cells (approx. 10^5 CFUs/ml) in 96-well microtiter plates (polypropylene), whereas each plate also includes a positive growth control and a negative control (sterile control). The range of peptide concentrations analyzed was 0.125–64 μg/ml for the high purity peptides and 0.06–32 μg/ml for peptides of the variant library. After incubation, the MIC is determined by the lowest concentration showing no visible growth. All plates were incubated for 16–20 hours. The MIC of the reference antibiotics was determined by the use of Sensititre panels (Trek Diagnostic Systems Ltd, East Grinstead, UK).

[2] = tested on: Salmonella enterica serovar Typhimurium LT2; assay: microbe, parasite or virus in culture; details: for MIC S. Typhimurium / MIC S. Typhimurium LT2: LT2; for MIC: Salmonella enterica, TYPHIMURIUM, read-out: MIC Salmonella Typhimurium LT2
Method: as §1, §2

[3] = tested on: Yersinia ruckeri 392/2003; assay: microbe, parasite or virus in culture; details: for MIC: Yersinia ruckeri, 392/2003, read-out: MIC Yersinia ruckeri 392/2003
Method: as §1, §2

[4] = tested on: Escherichia coli ATCC25922
Method: as §1, §2

[5] = tested on: Pseudomonas aeruginosa ATCC27853
Method: as §1, §2

[6] = tested on: Listeria monocytogenes N22-2
Method: as §1, §2

[7] = tested on: Lactococcus lactis IL1403
Method: as §1, §2

[8] = tested on: Enterococcus faecalis ATCC29212
Method: as §1, §2

[9] = standard antibiotics, Sensititre panels, triplicates, ≤ = sensitive to lowest concentration in plate
[10] = ATCC33658, read-out: MIC Aermononas salmonicida ATCC33658

| Molecule | MIC A. salmonicida ([1]; ATCC33658) [µg/mL] | MIC S. Typhimurium [2] [µg/mL] | MIC A. salmonicida ATCC33658 ([1]; ATCC33658) [µg/mL] | MIC S. Typhimurium LT2 [2] [µg/mL] | MIC Y. ruckeri [3] [µg/mL] | MIC Y. ruckeri 392/2003 [3] [µg/mL] | MIC E. coli ATCC25922 [4] [µg/mL] | MIC P. aeruginosa ATCC27853 [5] [µg/mL] | MIC L. monocytogenes N22-2 [6] [µg/mL] | MIC L. lactis IL1403 [7] [µg/mL] | MIC E. faecalis ATCC29212 [8] [µg/mL] | other results |
| --- | --- | --- | --- | --- | --- | --- | --- | --- | --- | --- | --- | --- |
| GLRKRLRKFRNKIKEKHKKIGQKIQGLLPKLAPRTDY [Peptide L17H] | 8 | 8 |  |  |  |  |  |  |  |  |  |  |
| GLRKRLRKFRNKIKEFLKKIGQKIQGLLPKLAPRTDY [Peptide 11] | 4 | 8 | 16 to 32 | 16 | 4 | 16 to 32 | 16 | 32 | 16 | ≥64 | 16 |  |
| GLRKRLRKFRNKIKEKLKKRGQKIQGLLPKLAPRTDY [Peptide I20R] | 16 | 8 |  |  | 16 |  |  |  |  |  |  |  |
| CC1(C)S[C@@H]2[C@H](NC(=O)[C@H](N)c3ccccc3)C(=O)N2[C@H]1C(=O)O [Ampicillin, reference compound] |  |  |  |  |  |  |  |  |  |  |  | MIC ([1]; ATCC33658, standard antibiotics, Sensititre panels, triplicates, ≤ = sensitive to lowest concentration in plate, read-out: MIC Aermononas salmonicida ATCC33658): ≤ 1 µg/mL; MIC [2, 9]: ≤ 1 µg/mL; MIC [3]: 2 µg/mL (≈ 5.72 µM) |
| GLRKRLRKFRNKIKEKLKKIGQKIQGLLPKLAPRTDD [Peptide Y37D] | 2 |  |  |  | 2 |  |  |  |  |  |  | MIC L. lactis [7]: 8 µg/mL |
| GLRKRRRKFRNKIKEKLKKIGQKIQGLLPKLAPRTDY [Peptide L6R] | 16 | 8 |  |  | 16 |  |  |  |  |  |  |  |
| GLRKRLRKFRNKIKEKLKKQGQKIQGLLPKLAPRTDY [Peptide I20Q] | 8 | 8 |  |  | 8 |  |  |  |  |  |  |  |
| GLRKRLRKFRNKFKEKLKKIGQKIQGLLPKLAPRTDY [Peptide 4] |  |  | 4 | 4 |  | 2 | 4 to 8 | 4 to 8 | 4 | 2 | 8 to 16 |  |
| GLRKRLRKFRNKIKEKLPKIGQKIQGLLPKLAPRTDY [Peptide 19] | 2 | 4 | 2 to 4 | 4 |  | 32 | 8 to 16 | 16 | 32 to 64 | 32 | ≥64 |  |
| Polymyxin E [reference compound] |  |  |  |  |  |  |  |  |  |  |  | MIC Aermononas salmonicida ATCC33658 [1, 9]: 2 µg/mL; MIC Salmonella Typhimurium LT2 [2, 9]: 2 µg/mL; MIC Yersinia ruckeri 392/2003 ([3]; standard antibiotics, Sensititre panels, triplicates): 1 to 2 µg/mL |
| GLRKRLRKFRNKSKEKLKKIGQKIQGLLPKLAPRTDY [Peptide 8] | 2 | 4 | 4 | 8 |  | 8 to 16 | 16 | 8 to 16 | 32 | ≥64 | ≥64 | MIC L. lactis [7]: 8 µg/mL |
| GLRKRLRKFRNKIKEKLKKIGQKHQGLLPKLAPRTDY [Peptide I24H] | 8 | 8 |  |  |  |  |  |  |  |  |  |  |
| GLRKRLRKFRNKIKEYLKKIGQKIQGLLPKLAPRTDY [Peptide 15] | 4 | 8 | 16 | 16 | 8 | 8 to 16 | 16 | 16 | 8 to 16 | ≥64 | 16 |  |
| GLRKRLRKFRNKIKECLKKIGQKIQGLLPKLAPRTDY [Peptide 9] | 4 | 8 | 8 | 8 to 16 | 2 | 8 to 16 | 8 | 16 to 32 | 16 | ≥64 | 32 |  |
| GLRKRLRKFRNKIKELLKKIGQKIQGLLPKLAPRTDY [Peptide 13] | 4 | 4 | 16 | 16 | 4 | 16 | 16 | 16 to 32 | 8 to 16 | ≥64 | 16 |  |
| GLRKRDRKFRNKIKEKLKKIGQKIQGLLPKLAPRTDY [Peptide L6D] | 16 | 8 |  |  |  |  |  |  |  |  |  | MIC L. lactis [7]: 16 µg/mL |
| GLRKRLRKFRNKIKEKLKKHGQKIQGLLPKLAPRTDY [Peptide 21] | 2 | 2 | 4 | 8 | 8 | 16 | 32 | 8 | 16 | 32 | ≥64 |  |
| GLRKRLRKFRNKIKEKLKKILQKIQGLLPKLAPRTDY [Peptide 24] | 4 | 8 | 16 | 16 | 4 | 16 | 16 | 16 | 16 | ≥64 | 16 |  |
| GLRKRLRKFRNKIKEKLKKIGQKGQGLLPKLAPRTDY [Peptide 27] | 8 | 4 | 8 | 8 to 16 | 16 | 32 | ≥64 | 16 | 32 | ≥64 | ≥64 |  |
| CCn1cc(C(=O)O)c(=O)c2ccc(C)nc21 [Nalidixic acid, reference compound] |  |  |  |  |  |  |  |  |  |  |  | MIC [1, 10]: ≤ 4 µg/mL; MIC [2]: ≤ 4 µg/mL; MIC [3]: 32 µg/mL (≈ 138 µM) |
| GLRKRLRKFRNKIKEMLKKIGQKIQGLLPKLAPRTDY [Peptide 14] | 4 | 4 | 8 to 16 | 16 | 4 | 8 to 16 | 16 | 16 to 32 | 16 | ≥64 | 32 |  |
| GLRKRLRKFRNKIKEKCKKIGQKIQGLLPKLAPRTDY [Peptide L17C] | 8 | 8 |  |  |  |  |  |  |  |  |  |  |
| GLRKRLRKFRNKIKEKLKKIGQKIQGLLPKCAPRTDY [Peptide L31C] | 4 |  |  |  | 4 |  |  |  |  |  |  | MIC L. lactis [7]: 8 µg/mL |
| CNC(C)C1CCC(N)C(OC2C(N)CC(N)C(OC3OCC(C)(O)C(NC)C3O)C2O)O1 (centres unmarked) [Gentamicin, reference compound] |  |  |  |  |  |  |  |  |  |  |  | MIC [1, 10]: 1 µg/mL (≈ 2.09 µM); MIC [2]: 0.5 to 1 µg/mL (≈ 1.05 to 2.09 µM); MIC [3]: 1 to 2 µg/mL (≈ 2.09 to 4.19 µM) |
| GLRKRLRKFRNKIKEKLKKIGQKIQGLLPKLAPRHDY [Peptide T35H] | 2 |  |  |  | 2 |  |  |  |  |  |  | MIC L. lactis [7]: 8 µg/mL |
| GLRKRLRKFRNKIKEKLKKIIQKIQGLLPKLAPRTDY [Peptide G21I] | 8 | 8 |  |  | 8 |  |  |  |  |  |  |  |
| GLRKRLRKFRNKNKEKLKKIGQKIQGLLPKLAPRTDY [Peptide I13N] | 8 | 8 |  |  |  |  |  |  |  |  |  |  |
